system: HCV replicon; test: HCV replicon replication assay (NPT ELISA) in Huh-7 replicon-containing cells; type: cell-based; conditions: Hepatitis C virus, 72 h; HCV replicon in Huh-7 cells, three days incubation; read-out: EC50
Summary of the method: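 Huh-7 cells carrying a bicistronic HCV replicon (HCV-IRES-neo, EMCV-IRES-driven NS3–NS5B, 3′-NTR) were seeded at 6000-7500 cells/well, grown 24 h to 60-70% confluence, then treated with graded compound concentrations. Replication was read as NPT level by capture ELISA (rabbit anti-NPTII, Eu-N1 secondary); interferon alpha served as positive control.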

SMILES	EC50
C=CC1CC1(NC(=O)[C@@H]1C[C@@H](OC(=O)N2Cc3cccc(F)c3C2)CN1C(=O)[C@@H](CC(=O)N1CCCCC1)C(C)(C)C)C(=O)NS(=O)(=O)C1CC1 (stereo partly drawn) [Compound 50, (3R,5S)-1-((S)-2-tert-butyl-4-oxo-4-(piperidin-1-yl)butanoyl)-5-(1-(cyclopropyl-sulfonylcarbamoyl)-2-vinylcyclopropyl-carbamoyl)pyr-rolidin-3-yl 4-fluoroisoindoline-2-carboxylate]	< 1 µM
C=C[C@@H]1C[C@]1(NC(=O)[C@@H]1C[C@@H](Oc2cc(-c3nc(C(C)C)cs3)nc3c(C)c(OC)ccc23)CN1C(=O)[C@@H](CC(=O)N1CCCC(F)(F)C1)C(C)(C)C)C(=O)NS(=O)(=O)C1CC1 [Compound 248, (2S,4R)-1-((S)-2-tert-butyl-4-(3,3-difluoropiperidin-1-yl)-4-oxobutanoyl)-N-((2S)-1-(cyclopropyl-sulfonylcarbamoyl)-2-vinylcyclopropyl)-4-(2-(4-isopropylthiazol-2-yl)-7-methoxy-8-methylquinolin-4-yloxy)pyrrolidine-2-carboxamide]	< 1 µM
C=C[C@@H]1C[C@]1(NC(=O)[C@@H]1C[C@@H](Oc2cc(-c3nc(C(C)C)cs3)nc3c(C)c(OC)ccc23)CN1C(=O)[C@@H](CC(=O)N1CCCCC1)C(C)(C)C)C(=O)NS(=O)(=O)C1CC1 [Compound 255, (2S,4R)-1-((S)-2-tert-butyl-4-oxo-4-(piperidin-1-yl)butanoyl)-N-((2S)-1-(cyclopropyl-sulfonylcarbamoyl)-2-vinylcyclopropyl)-4-(2-(4-isopropylthiazol-2-yl)-7-methoxy-8-methylquinolin-4-yloxy)pyrrolidine-2-carboxamide]	< 1 µM

From patent publication US9133115B2 (ACHILLION PHARMACEUTICALS, INC., priority 2008, dated 2015)
